In ChEMBL document CHEMBL1201862, “PubChem BioAssay data set” (2004):
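Each compound was tested at five concentrations against cells in 96-well plates for 48 hours. Abbreviation: GI50, concentration required for 50% inhibition of growth.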 Activity calls are given as the source filed them. Cut-off read from the data, not from the text of the source: active = GI50 up to about 1.1 µM and inactive = higher.

Assays:
Assay in all cases: NCI anticancer screen, dose series, 48 h
SR = system: SR
NCI-H522 = system: NCI-H522
HCT-116 = system: HCT-116
NCI-H226 = system: NCI-H226
CAKI-1 = system: CAKI-1
MOLT-4 = system: MOLT-4
SW-620 = system: SW-620
RXF 393 = system: RXF 393
TK-10 = system: TK-10
SK-MEL-5 = system: SK-MEL-5
NCI/ADR-RES = system: NCI/ADR-RES
HL-60 = system: HL-60
SK-MEL-2 = system: SK-MEL-2
HOP-62 = system: HOP-62
U-251 = system: U-251
T47D = system: T47D
NCI-H460 = system: NCI-H460
HCC 2998 = system: HCC 2998
RPMI-8226 = system: RPMI-8226

Measured: GI50

Cc1ccc2nc(CC(=O)c3ccc4ccccc4c3)c(O)nc2c1
inactive: SR > 100 µM | NCI-H522 > 100 µM | HCT-116 > 100 µM | NCI-H226 > 100 µM | CAKI-1 > 100 µM | MOLT-4 > 100 µM | SW-620 > 100 µM | RXF 393 > 100 µM | TK-10 > 100 µM | SK-MEL-5 > 100 µM | NCI/ADR-RES > 100 µM | HL-60 > 100 µM | SK-MEL-2 > 100 µM | HOP-62 > 100 µM | U-251 > 100 µM | T47D > 100 µM | NCI-H460 > 100 µM | HCC 2998 > 100 µM | RPMI-8226 > 100 µM

CC/C(Cl)=N\OC(=O)Nc1ccc(C#N)cc1
inactive: SR 3.13 µM | NCI-H522 1.48 µM | HCT-116 14.6 µM | NCI-H226 16.6 µM | CAKI-1 5.04 µM | MOLT-4 2.28 µM | SW-620 3.28 µM | RXF 393 8.75 µM | TK-10 16.4 µM | SK-MEL-5 12.9 µM | NCI/ADR-RES 13.3 µM | HL-60 2.01 µM | SK-MEL-2 15.9 µM | HOP-62 17.2 µM | U-251 17.1 µM | T47D 10.8 µM | NCI-H460 19.5 µM | HCC 2998 16.4 µM | RPMI-8226 2.28 µM

O=C1NN(c2ccccc2)C(=O)C2C3c4ccccc4C(c4ccccc43)C12 (stereo not drawn)
inactive: SR > 100 µM | NCI-H522 49.1 µM | HCT-116 75 µM | NCI-H226 > 100 µM | CAKI-1 > 100 µM | MOLT-4 6.22 µM | SW-620 > 100 µM | RXF 393 41.1 µM | TK-10 > 100 µM | SK-MEL-5 > 100 µM | NCI/ADR-RES > 100 µM | HL-60 > 10 µM | SK-MEL-2 > 100 µM | HOP-62 56.8 µM | U-251 > 100 µM | T47D 44.4 µM | NCI-H460 > 100 µM | HCC 2998 6.64 µM | RPMI-8226 > 100 µM

Cc1cccc(/N=N/C(=N\NC(=O)c2cc(Cl)ccc2O)c2ccc(N(CCC#N)CCC#N)cc2C)c1
inactive: SR 22.8 µM | NCI-H522 20.8 µM | HCT-116 33 µM | NCI-H226 36 µM | CAKI-1 30.6 µM | MOLT-4 15.9 µM | SW-620 46.7 µM | RXF 393 30.4 µM | TK-10 20 µM | SK-MEL-5 34 µM | NCI/ADR-RES 45.1 µM | HL-60 14.3 µM | SK-MEL-2 29 µM | HOP-62 28.2 µM | U-251 36.1 µM | T47D 22.9 µM | NCI-H460 26.1 µM | HCC 2998 28.5 µM | RPMI-8226 14.9 µM

Cc1nn(C(=O)c2ccc(Cl)cc2)c2c1C(c1ccco1)SC(=N)N2 (stereo not drawn)
inactive: SR > 10 µM | NCI-H522 > 10 µM | HCT-116 > 10 µM | NCI-H226 > 10 µM | CAKI-1 > 10 µM | MOLT-4 > 10 µM | SW-620 > 10 µM | RXF 393 > 10 µM | TK-10 > 10 µM | SK-MEL-5 > 10 µM | NCI/ADR-RES > 10 µM | HL-60 > 10 µM | SK-MEL-2 > 10 µM | HOP-62 > 10 µM | U-251 > 10 µM | T47D > 10 µM | NCI-H460 > 10 µM | HCC 2998 > 10 µM | RPMI-8226 > 10 µM

CCCCCc1c(CCCC)c(=O)[nH]c2cc(CNCC(OC)OC)ccc12
inactive: SR 6.9 µM | NCI-H522 17.6 µM | HCT-116 7.11 µM | NCI-H226 20.6 µM | CAKI-1 10.9 µM | MOLT-4 5.33 µM | SW-620 5.79 µM | RXF 393 12 µM | TK-10 15 µM | SK-MEL-5 8.77 µM | NCI/ADR-RES 12.4 µM | HL-60 6 µM | SK-MEL-2 11.7 µM | HOP-62 18.2 µM | U-251 10.8 µM | T47D 15.5 µM | NCI-H460 10.5 µM | HCC 2998 3.24 µM | RPMI-8226 4.08 µM

COc1ccc(-c2c3c(n(C4OC(CO)C(O)C(O)C4O)c(=S)c2C#N)CC(C)(C)CC3=O)cc1 (stereo not drawn)
inactive: SR 74.5 µM | NCI-H522 > 100 µM | HCT-116 73.3 µM | NCI-H226 96.6 µM | CAKI-1 > 100 µM | MOLT-4 79.4 µM | RXF 393 > 100 µM | TK-10 > 100 µM | SK-MEL-5 > 100 µM | NCI/ADR-RES > 100 µM | HL-60 > 100 µM | SK-MEL-2 > 100 µM | HOP-62 > 100 µM | U-251 > 100 µM | T47D 13.8 µM | NCI-H460 > 100 µM | HCC 2998 > 100 µM | RPMI-8226 89.7 µM

COc1ccc2nc(N/N=C/C(C)=N/Nc3cc(C)c4cc(OC)ccc4n3)cc(C)c2c1
inactive: SR 5.11 µM | NCI-H522 20.3 µM | HCT-116 14.2 µM | NCI-H226 45.6 µM | CAKI-1 49.4 µM | MOLT-4 21.2 µM | SW-620 17 µM | RXF 393 39.9 µM | TK-10 30.5 µM | SK-MEL-5 26.5 µM | NCI/ADR-RES 22 µM | HL-60 18.5 µM | SK-MEL-2 > 68.1 µM | HOP-62 28.6 µM | U-251 16.2 µM | T47D 29.8 µM | NCI-H460 14.7 µM | HCC 2998 20.1 µM | RPMI-8226 7.33 µM

COc1cc(CSc2ccc(O)cc2)cc(O)c1O
inactive: SR 21.7 µM | NCI-H522 16.1 µM | HCT-116 22.1 µM | NCI-H226 23.4 µM | CAKI-1 28 µM | MOLT-4 25.3 µM | SW-620 38.5 µM | RXF 393 50.6 µM | TK-10 53.1 µM | SK-MEL-5 > 10 µM | NCI/ADR-RES 23.8 µM | HL-60 19.6 µM | SK-MEL-2 24.5 µM | HOP-62 44.7 µM | U-251 28.8 µM | T47D 28.8 µM | NCI-H460 > 10 µM | HCC 2998 29.2 µM | RPMI-8226 15.7 µM

O=C1c2ccccc2C(=O)c2c1ccc1c2OCO1
inactive: SR > 100 µM | NCI-H522 > 100 µM | HCT-116 > 100 µM | NCI-H226 58.7 µM | CAKI-1 > 100 µM | MOLT-4 > 100 µM | SW-620 > 100 µM | RXF 393 > 100 µM | TK-10 > 100 µM | SK-MEL-5 > 100 µM | NCI/ADR-RES > 100 µM | HL-60 > 100 µM | SK-MEL-2 > 100 µM | HOP-62 > 100 µM | U-251 > 100 µM | T47D > 100 µM | HCC 2998 > 100 µM | RPMI-8226 > 100 µM
